# Biological target: Epidermal growth factor receptor (Homo sapiens, UniProt P00533)
# Sequence (P00533 whole entry): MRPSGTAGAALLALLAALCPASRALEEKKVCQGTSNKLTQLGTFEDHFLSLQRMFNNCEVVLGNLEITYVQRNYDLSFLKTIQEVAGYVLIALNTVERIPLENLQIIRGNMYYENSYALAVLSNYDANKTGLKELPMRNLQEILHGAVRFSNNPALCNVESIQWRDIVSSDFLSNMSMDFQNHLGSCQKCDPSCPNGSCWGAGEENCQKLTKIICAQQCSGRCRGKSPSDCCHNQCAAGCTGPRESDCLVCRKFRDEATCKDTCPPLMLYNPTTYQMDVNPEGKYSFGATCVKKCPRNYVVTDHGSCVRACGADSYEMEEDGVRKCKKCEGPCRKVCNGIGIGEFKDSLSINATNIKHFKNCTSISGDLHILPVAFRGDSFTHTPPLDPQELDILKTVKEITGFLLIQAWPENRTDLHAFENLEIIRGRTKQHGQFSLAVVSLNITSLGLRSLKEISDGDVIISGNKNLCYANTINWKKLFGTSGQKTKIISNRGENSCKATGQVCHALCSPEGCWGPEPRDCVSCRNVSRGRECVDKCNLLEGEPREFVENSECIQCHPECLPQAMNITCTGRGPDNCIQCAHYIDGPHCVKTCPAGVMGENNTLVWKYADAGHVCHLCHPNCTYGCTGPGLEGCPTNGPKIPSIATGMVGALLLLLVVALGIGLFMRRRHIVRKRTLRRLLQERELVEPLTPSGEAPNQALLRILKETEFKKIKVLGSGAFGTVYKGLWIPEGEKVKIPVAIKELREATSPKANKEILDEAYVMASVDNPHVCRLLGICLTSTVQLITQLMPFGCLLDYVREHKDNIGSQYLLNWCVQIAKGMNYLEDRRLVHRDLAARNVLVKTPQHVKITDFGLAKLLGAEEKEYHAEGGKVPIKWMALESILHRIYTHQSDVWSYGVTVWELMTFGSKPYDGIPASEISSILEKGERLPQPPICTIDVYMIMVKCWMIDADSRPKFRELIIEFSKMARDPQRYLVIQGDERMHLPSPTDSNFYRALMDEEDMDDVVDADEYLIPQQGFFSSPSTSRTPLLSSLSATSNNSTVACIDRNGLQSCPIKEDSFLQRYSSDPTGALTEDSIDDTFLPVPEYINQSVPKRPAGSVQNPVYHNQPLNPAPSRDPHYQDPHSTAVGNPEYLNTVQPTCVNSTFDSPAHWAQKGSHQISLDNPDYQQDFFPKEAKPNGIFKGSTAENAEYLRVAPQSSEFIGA
row,SMILES,IC50 [µM]
1,C#Cc1ccc2ncnc(Nc3ccc(F)c(Cl)c3)c2c1,0.127
2,C#Cc1cccc(Nc2ncnc3cc(OC)c(OC)cc23)c1,0.0288
3,OCC#Cc1ccc2ncnc(Nc3ccc(F)c(Cl)c3)c2c1,0.0141
4,COc1cc2ncnc(Nc3cccc(C#Cc4ccccc4)c3)c2cc1OC,0.921
5,OCCC#Cc1ccc2ncnc(Nc3ccc(F)c(Cl)c3)c2c1,0.186
6,COc1cc2ncnc(Nc3cccc(C#CC(C)(C)O)c3)c2cc1OC,0.206

# More lines, in order of falling IC50, values ahead:
row,IC50 [µM],SMILES
1,1.64,COc1cc2ncnc(Nc3cccc(C#CCO)c3)c2cc1OC
2,1.36,COc1cc2ncnc(Nc3cccc(C#CCCCO)c3)c2cc1OC
3,0.402,COc1cc2ncnc(Nc3cccc(C#CCCO)c3)c2cc1OC
4,0.331,Fc1ccc(Nc2ncnc3ccc(C#Cc4ccccc4)cc23)cc1Cl
5,0.152,CC(C)(O)C#Cc1ccc2ncnc(Nc3ccc(F)c(Cl)c3)c2c1
6,0.114,OCCCC#Cc1ccc2ncnc(Nc3ccc(F)c(Cl)c3)c2c1
7,0.0887,Fc1ccc(Nc2ncnc3ccc(C#CCN4CCCCC4)cc23)cc1Cl
8,0.0503,Fc1ccc(Nc2ncnc3ccc(C#CCN4CCOCC4)cc23)cc1Cl

# From ChEMBL document CHEMBL1140520, “Synthesis and biological evaluation of substituted 6-alkynyl-4-anilinoquinazoline derivatives as potent EGFR inhibitors” (Bioorg Med Chem Lett, 2007)
